According to ChEMBL document CHEMBL6109039, “Designed and synthesized novel tripeptides targeting diabetes and its related pathologies” (Eur J Med Chem, 2025):
Residues, ends and D or L forms follow the SMILES beside them.

Legend:
Albumin [1] = molecular target: T1, Albumin (Homo sapiens, UniProt P02768); test: Inhibition of D-fructose glycation in human serum albumin model by measuring absorbance at 279 nm incubated for 26 days by UV spectroscopic analysis (reference value: 2.267); conditions: 624 h, time 26 day
Albumin [2] = molecular target: T1, Albumin; test: Inhibition of D-glucose glycation in human serum albumin model by measuring absorbance at 279 nm incubated for 5 days by UV spectroscopic analysis (reference value: 0.741); conditions: 120 h, time 5 day
Albumin [3] = molecular target: T1, Albumin; test: Inhibition of D-fructose glycation in human serum albumin model by measuring absorbance at 279 nm incubated for 14 days by UV spectroscopic analysis (reference value: 2.333); conditions: 336 h, time 14 day
Albumin [4] = molecular target: T1, Albumin; test: Inhibition of D-glucose glycation in human serum albumin model by measuring ketoamine moieties incubated for 7 days by Nitroblue tetrazolium (NBT) reduction assay (reference value: 35.92 nmol/mL); conditions: 168 h, time 7 day
Albumin [5] = molecular target: T1, Albumin; test: Inhibition of D-fructose glycation in human serum albumin model assessed as reduction in fluorescence intensity incubated for 3 days by UV spectroscopic analysis relative to control; conditions: 72 h, time 3 day
Albumin [6] = molecular target: T1, Albumin; test: Inhibition of D-fructose glycation in human serum albumin model by measuring ketoamine moieties incubated for 3 days by Nitroblue tetrazolium (NBT) reduction assay (reference value: 152.64 nmol/mL); conditions: 72 h, time 3 day
Mus musculus [7] = test: Antidiabetic activity in Nicotinamide/Streptozotocin induced male Balb/c mouse model assessed as reduction in LDL-Cholesterol level in blood at 63.81 ug/kg, ip treated for 21 days (reference value: 46 +/- 2.30 mg/dL); format: functional; conditions: dose 63.81 µg/kg, time 21 day
Albumin [8] = molecular target: T1, Albumin; test: Inhibition of D-glucose glycation in human serum albumin model by measuring ketoamine moieties incubated for 3 days by Nitroblue tetrazolium (NBT) reduction assay (reference value: 24.27 nmol/mL); conditions: 72 h, time 3 day
Albumin [9] = molecular target: T1, Albumin; test: Inhibition of D-glucose glycation in human serum albumin model incubated for 14 days by UV spectroscopic analysis relative to control; conditions: 336 h, time 14 day
Albumin [10] = molecular target: T1, Albumin; test: Inhibition of D-glucose glycation in human serum albumin model by measuring ketoamine moieties incubated for 26 days by Nitroblue tetrazolium (NBT) reduction assay (reference value: 28.79 nmol/mL); conditions: 624 h, time 26 day
Pancreatic alpha-amylase = molecular target: T2, Pancreatic alpha-amylase (Sus scrofa, UniProt P00690); test: Inhibition of porcine pancreatic Alpha-amylase using starch as substrate pre-incubated for 20 mins followed by substrate addition and measured after 15 mins by DNS reagent based absorbance assay
T2 sequence (P00690 whole entry): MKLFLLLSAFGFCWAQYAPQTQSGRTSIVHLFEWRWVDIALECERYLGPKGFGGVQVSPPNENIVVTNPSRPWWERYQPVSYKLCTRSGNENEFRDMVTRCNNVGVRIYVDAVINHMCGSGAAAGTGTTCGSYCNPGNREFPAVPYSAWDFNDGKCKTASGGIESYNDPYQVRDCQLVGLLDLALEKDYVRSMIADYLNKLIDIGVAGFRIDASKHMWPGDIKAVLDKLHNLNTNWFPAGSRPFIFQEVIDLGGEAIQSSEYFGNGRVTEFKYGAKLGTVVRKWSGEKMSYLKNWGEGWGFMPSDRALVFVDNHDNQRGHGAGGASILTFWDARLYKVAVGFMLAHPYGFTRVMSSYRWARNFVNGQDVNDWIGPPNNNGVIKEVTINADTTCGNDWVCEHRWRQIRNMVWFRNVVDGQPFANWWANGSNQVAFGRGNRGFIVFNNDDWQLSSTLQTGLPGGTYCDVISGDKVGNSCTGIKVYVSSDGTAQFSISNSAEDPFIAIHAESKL

Albumin [11] = molecular target: T1, Albumin; test: Inhibition of D-glucose glycation in human serum albumin model by measuring absorbance at 279 nm incubated for 3 days by UV spectroscopic analysis (reference value: 0.562); conditions: 72 h, time 3 day
Albumin [12] = molecular target: T1, Albumin; test: Inhibition of D-fructose glycation in human serum albumin model by measuring absorbance at 279 nm incubated for 3 days by UV spectroscopic analysis (reference value: 0.492); conditions: 72 h, time 3 day
Mus musculus [13] = test: Antidiabetic activity in Nicotinamide/Streptozotocin induced male Balb/c mouse model assessed as reduction in VLDL-cholesterol level in blood at 63.81 microg/kg, ip treated for 21 days (reference value: 14 +/- 0.6 mg/dL); format: functional; conditions: dose 63.81 µg/kg, time 21 day
Albumin [14] = molecular target: T1, Albumin; test: Inhibition of D-glucose glycation in human serum albumin model by measuring absorbance at 279 nm incubated for 33 days by UV spectroscopic analysis (reference value: 1.997); conditions: 792 h, time 33 day
Albumin [15] = molecular target: T1, Albumin; test: Inhibition of D-glucose glycation in human serum albumin model assessed as reduction in fluorescence intensity incubated for 3 days by UV spectroscopic analysis relative to control; conditions: 72 h, time 3 day
Albumin [16] = molecular target: T1, Albumin; test: Inhibition of D-fructose glycation in human serum albumin model by measuring absorbance at 279 nm incubated for 7 days by UV spectroscopic analysis (reference value: 1.072); conditions: 168 h, time 7 day
Mus musculus [17] = test: Antidiabetic activity in Nicotinamide/Streptozotocin induced male Balb/c mouse model assessed as change in body weight at 63.81 ug/kg, ip measured immediately (reference value: 25.08 +/- 1.25 g); format: functional; conditions: dose 63.81 µg/kg
Albumin [18] = molecular target: T1, Albumin; test: Inhibition of D-glucose glycation in human serum albumin model by measuring ketoamine moieties incubated for 5 days by Nitroblue tetrazolium (NBT) reduction assay (reference value: 18.58 nmol/mL); conditions: 120 h, time 5 day
Mus musculus [19] = test: Antidiabetic activity in Nicotinamide/Streptozotocin induced male Balb/c mouse model assessed as reduction in total cholesterol level in blood at 63.81 ug/kg, ip treated for 21 days (reference value: 121 +/- 6.05 mg/dL); format: functional; conditions: dose 63.81 µg/kg, time 21 day
Albumin [20] = molecular target: T1, Albumin; test: Inhibition of D-fructose glycation in human serum albumin model by measuring absorbance at 279 nm incubated for 33 days by UV spectroscopic analysis (Rvb =2.222); conditions: 792 h, time 33 day
Albumin [21] = molecular target: T1, Albumin; test: Inhibition of D-fructose glycation in human serum albumin model by measuring ketoamine moieties incubated for 26 days by Nitroblue tetrazolium (NBT) reduction assay (reference value: 118.21 nmol/mL); conditions: 624 h, time 26 day
Albumin [22] = molecular target: T1, Albumin; test: Inhibition of D-fructose glycation in human serum albumin model by measuring ketoamine moieties incubated for 7 days by Nitroblue tetrazolium (NBT) reduction assay (reference value: 125.33 nmol/mL); conditions: 168 h, time 7 day
Mus musculus [23] = test: Antidiabetic activity in Nicotinamide/Streptozotocin induced male Balb/c mouse model assessed as reduction in fasting blood glucose levels at 63.81 ug/kg, ip measured after 7 days by glucometer analysis (reference value: 160.5 +/- 8.02 mg/dl); format: functional; conditions: dose 63.81 µg/kg, time 7 day
Albumin [24] = molecular target: T1, Albumin; test: Inhibition of D-glucose glycation in human serum albumin model by measuring absorbance at 279 nm incubated for 26 days by UV spectroscopic analysis (reference value: 2.301); conditions: 624 h, time 26 day
Albumin [25] = molecular target: T1, Albumin; test: Inhibition of D-glucose glycation in human serum albumin model by measuring ketoamine moieties incubated for 14 days by Nitroblue tetrazolium (NBT) reduction assay (reference value: 28.69 nmol/mL); conditions: 336 h, time 14 day

T1 sequence (P02768 whole entry): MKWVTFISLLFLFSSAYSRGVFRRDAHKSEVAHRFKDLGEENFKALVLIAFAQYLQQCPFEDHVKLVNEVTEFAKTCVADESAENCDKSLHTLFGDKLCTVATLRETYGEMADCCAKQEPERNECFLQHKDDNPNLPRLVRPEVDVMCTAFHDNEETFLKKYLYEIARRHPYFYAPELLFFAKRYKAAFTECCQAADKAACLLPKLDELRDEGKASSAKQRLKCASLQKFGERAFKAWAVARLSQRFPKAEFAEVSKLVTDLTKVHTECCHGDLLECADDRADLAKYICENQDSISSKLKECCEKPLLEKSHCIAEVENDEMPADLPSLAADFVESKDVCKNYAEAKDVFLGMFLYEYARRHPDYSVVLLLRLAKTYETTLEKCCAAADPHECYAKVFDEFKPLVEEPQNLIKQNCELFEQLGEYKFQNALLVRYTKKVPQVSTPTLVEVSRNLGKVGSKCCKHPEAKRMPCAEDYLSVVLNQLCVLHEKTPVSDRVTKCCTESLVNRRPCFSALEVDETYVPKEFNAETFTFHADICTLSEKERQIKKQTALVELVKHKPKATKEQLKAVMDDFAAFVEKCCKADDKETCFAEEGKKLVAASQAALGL

OD (Albumin [1]): 1.502 | OD (Albumin [2]): 0.335 | OD (Albumin [3]): 1.207 | Activity (Albumin [4]): 12.579 nmol/mL | inhibition (INH) (Albumin [5]): 52.78% | Activity (Albumin [6]): 135.37 nmol/mL | Activity (Albumin [8]): 19.383 nmol/mL | inhibition (INH) (Albumin [9]): 74.68% | Activity (Albumin [10]): 20.174 nmol/mL | IC50 (Pancreatic alpha-amylase): 96 µM | OD (Albumin [11]): 0.287 | OD (Albumin [12]): 0.287 | OD (Albumin [14]): 1.236 | inhibition (INH) (Albumin [15]): 78% | OD (Albumin [16]): 0.665 | Activity (Albumin [18]): 12.342 nmol/mL | OD (Albumin [20]): 1.298 | Activity (Albumin [21]): 142.17 nmol/mL | Activity (Albumin [22]): 113.45 nmol/mL | OD (Albumin [24]): 2.301 | Activity (Albumin [25]): 9.573 nmol/mL
SMILES: N=C(N)NCCC[C@H](N)C(=O)N[C@@H](Cc1c[nH]c2ccccc12)C(=O)N[C@@H](Cc1c[nH]c2ccccc12)C(=O)O (H-Arg-Trp-Trp-OH)
Activity (Mus musculus [7]): 31 mg/dL | Activity (Mus musculus [13]): 11 mg/dL | Activity (Mus musculus [17]): 29.56 g | Activity (Mus musculus [19]): 108 mg/dL | Activity (Mus musculus [23]): 150 mg/dL
